Test results reported in patent US10392385B2, “N-((1-phenyl-9H-pyrido[3,4-b]indol-3-yl)methyl)cinnamamides as potential anticancer agents and preparation thereof” (Council of Scientific & Industrial Research, priority 2016, dated 2019).

Key:
[1] = system: NIH3T3 (mouse embryonic fibroblast cell line); test: MTT cytotoxicity assay, NIH3T3; type: cell-based; details: 48 h of drug treatment (footnote), average of three experiments
Source text: (§1) The N-((1-phenyl-9H-pyrido[3,4-b]indol-3-yl)methyl)cinnamamides (1a-h, 2a-h and 3a-h) have been tested against five human cancer cell lines such as A549 (lung cancer), MCF-7 (breast cancer), B16 (melanoma), HeLa (cervical cancer) and NIH3T3 (mouse embryonic fibroblast cancer). All the cancer cell lines (HeLa, A549, MCF-7 and B16) were procured from National Centre for Cell Sciences (NCCS, Pune, India) and NIH 3T3 cell line was obtained from American Type Culture Collection (Rockville, Md., USA). Stock cells were cultured in DMEM supplemented with 10% Fetal Bovine Serum (FBS), in an humidified atmosphere of 5% CO2 at 37° C. until they are 80% confluent. To study the cytotoxicity of the compounds, after 80% confluence, cells were trypsinized with 0.1% trypsin-EDTA and harvested by centrifugation at 500×g. Serial dilutions of cells were made from 1×10^6 to 1×10^3 cells per mL The cells were seeded in triplicate in a 96 well plate. The cells were seeded in triplicate in a 96 well plate. […] The cell viability was determined by measuring the ability of cells to transform MTT to a purple coloured formazan dye. The absorbance of samples at 570 nm was measured using a UV-Visible spectrophotometer. Percentage of viable cells was calculated by using the formula given below.
(§2) Where the OD570 (sample) corresponds to absorbance obtained from the wells treated with compound and OD570 (control) represents the absorbance from the wells in which no compound was added. For these compounds results are expressed as half maximal inhibitory concentration (IC50) values and the anticancer activity data of 1a-h, 2a-h and 3a-h are shown in Table 2.

[2] = system: A549 (lung cancer); test: MTT cytotoxicity assay, A549; type: cell-based; details: Homo sapiens, 48 h of drug treatment (footnote), average of three experiments
Source text: as §1
(§3) Where the OD570 (sample) corresponds to absorbance obtained from the wells treated with compound and OD570 (control) represents the absorbance from the wells in which no compound was added.

[3] = system: HeLa (cervical cancer); test: MTT cytotoxicity assay, HeLa; type: cell-based; details: Homo sapiens, of drug treatment (footnote), average of three experiments
Source text: as §1, §2

[4] = system: B16 (melanoma); test: MTT cytotoxicity assay, B16; type: cell-based; details: 48 h of drug treatment (footnote), average of three experiments
Source text: as §1, §2

[5] = system: MCF-7 (breast cancer); test: MTT cytotoxicity assay, MCF-7; type: cell-based; details: Homo sapiens, MCF7, average of three experiments
Source text: as §1, §2

[6] = system: MCF-7; details: breast cancer; 48 h of drug treatment; average of three experiments; cited from earlier work
[7] = system: A549; details: lung cancer; 48 h of drug treatment; average of three experiments; cited from earlier work
[8] = system: HeLa; details: cervical cancer; 48 h of drug treatment; average of three experiments; cited from earlier work
[9] = system: A549, MCF-7, B16, HeLa and NIH3T3 cell lines; test: MTT cytotoxicity assay, all the cell lines tested; type: cell-based; details: summary over A549, MCF-7, B16, HeLa, read-out: IC50 against all the cell lines tested
Source text: as §1, with “500×g.” for “500×g. Serial dilutions of cells were made from 1×10^6 to 1×10^3 cells per mL The cells were seeded in triplicate in a 96 well plate. The cells were seeded in triplicate in a 96 well plate.”
as §3

melting point | SMILES | IC50 [1] | IC50 [2] | IC50 [3] | IC50 [4] | IC50 [5] | IC50 [6] | IC50 [7] | IC50 [8] | IC50 [9]
175 to 178 °C | COc1cc(-c2nc(CNC(=O)/C=C/c3cccc(O)c3)cc3c2[nH]c2ccccc23)cc(OC)c1OC [Compound 2h, (E)-3-(3-hydroxyphenyl)-N-((1-(3,4,5-trimethoxyphenyl)-9H-pyrido[3,4-b]indol-3-yl)methyl)acrylamide] | 38.2 ± 1.5 nM | 19.5 ± 1.5 nM | 23.65 ± 0.1 nM | 21.8 ± 0.8 nM | 16.8 ± 0.5 nM |  |  |  | 
148 to 150 °C | COc1ccc(-c2nc(CNC(=O)/C=C/c3cc(OC)c(OC)c(OC)c3)cc3c2[nH]c2ccccc23)cc1 [Compound 3a, (E)-N-((1-(4-methoxyphenyl)-9H-pyrido[3,4-b]indol-3-yl)methyl)-3-(3,4,5-trimethoxyphenyl)acrylamide] | 39.3 ± 1.7 nM | 19.7 ± 0.6 nM | 22.89 ± 0.2 nM | 17.4 ± 0.4 nM | 13.4 nM |  |  |  | 
188 to 190 °C | COc1ccc(-c2nc(CNC(=O)/C=C/c3ccc(Cl)c(Cl)c3)cc3c2[nH]c2ccccc23)cc1 [Compound 3b, (E)-3-(3,4-dichlorophenyl)-N-((1-(4-methoxyphenyl)-9H-pyrido[3,4-b]indol-3-yl)methyl)acrylamide] | 37.5 ± 1.4 nM | 18.4 ± 0.7 nM | 21.6 ± 0.4 nM | 23 ± 0.5 nM | 16.4 ± 0.5 nM |  |  |  | 
145 to 148 °C | COc1ccc(-c2nc(CNC(=O)/C=C/c3ccc(F)cc3)cc3c2[nH]c2ccccc23)cc1 [Compound 3c, (E)-3-(4-fluorophenyl)-N-((1-(4-methoxyphenyl)-9H-pyrido[3,4-b]indol-3-yl)methyl)acrylamide] | 36.9 ± 1.6 nM | 20.2 ± 1.3 nM | 22.8 ± 0.6 nM | 21.9 ± 0.3 nM | 18.2 ± 0.7 nM |  |  |  | 
230 to 232 °C | COc1ccc(-c2nc(CNC(=O)/C=C/c3cc(F)cc(F)c3)cc3c2[nH]c2ccccc23)cc1 [Compound 3d, (E)-3-(3,5-difluorophenyl)-N-((1-(4-methoxyphenyl)-9H-pyrido[3,4-b]indol-3-yl)methyl)acrylamide] | 37.5 ± 1.3 nM | 20 ± 1.1 nM | 24.6 ± 0.4 nM | 23.87 ± 0.2 nM | 17.2 ± 1.2 nM |  |  |  | 
130 to 135 °C | COc1ccc(-c2nc(CNC(=O)/C=C/c3cc(OC)ccc3OC)cc3c2[nH]c2ccccc23)cc1 [Compound 3e, (E)-3-(2,5-dimethoxyphenyl)-N-((1-(4-methoxyphenyl)-9H-pyrido[3,4-b]indol-3-yl)methyl)acrylamide] | 34.4 ± 1.6 nM | 18.9 ± 1.2 nM | 25.4 ± 0.3 nM | 22.1 ± 0.4 nM | 16.5 ± 0.7 nM |  |  |  | 
215 to 220 °C | COc1ccc(-c2nc(CNC(=O)/C=C/c3ccc(O)c(OC)c3)cc3c2[nH]c2ccccc23)cc1 [Compound 3g, (E)-3-(4-hydroxy-3-methoxyphenyl)-N-((1-(4-methoxyphenyl)-9H-pyrido[3,4-b]indol-3-yl)methyl)acrylamide] | 39.9 ± 1.6 nM | 21.2 ± 1.5 nM | 24.87 ± 0.2 nM | 19.8 ± 0.5 nM | 17.2 ± 0.5 nM |  |  |  | 
 | COc1cc(-c2nc(CN)cc3c2[nH]c2ccccc23)cc(OC)c1OC [Compound 21b, (1-(3,4,5-trimethoxyphenyl)-9H-pyrido[3,4-b]indol-3-yl)methanamine] |  |  |  |  |  | 18600 nM | 15100 nM | 21700 nM | 
 | COc1ccc(-c2nc(CN)cc3c2[nH]c2ccccc23)cc1 [Compound 21c, (1-(4-methoxyphenyl)-9H-pyrido[3,4-b]indol-3-yl)methanamine] |  |  |  |  |  | 18900 nM | 17800 nM | 18600 nM | 
 | NCc1cc2c([nH]c3ccccc32)c(-c2ccc(C(F)(F)F)cc2)n1 [Compound 21e] |  |  |  |  |  | 12000 nM | 15800 nM | 15800 nM | 
 | COc1cccc2c1C(=O)c1c(O)c3c(c(O)c1C2=O)C[C@@](O)(C(=O)CO)C[C@@H]3O[C@H]1C[C@H](N)[C@H](O)[C@H](C)O1 [Doxorubicin, reference compound] | 1720 ± 0.8 nM |  | 780 ± 0.5 nM | 670 ± 0.7 nM | 580 ± 0.2 nM |  |  |  | > 500 nM
